The test system of series [1] is Malassezia furfur (ATCC #38593). In words: Malassezia furfur growth inhibition assay (96-well, Alamar blue). Type of series: cell-based. The procedure:
Malassezia furfur (ATCC #38593) was cultured on Media C agar for 7 days at 37° C. Yeast colonies were then harvested into 0.9% saline sterile diH2O and diluted to approximately 1.5×10^6 CFU/mL using a 0.5 MacFarland standard (Fisher # R20410) to create an assay inoculum. Assay inoculum was added to sterile Media C broth to a final concentration of 4.5×10^4 CFU/mL. Assays were carried out in 96 well plates with a final well volume of 100 μL. Extract fractions and pure compounds were tested in triplicate against each organism. Extract fractions and pure compounds were re-suspended in sterile 20% DMSO. Extract fractions were assayed at two concentrations (50 and 250 μg/mL) with a final well volume concentration of 2% DMSO while pure compounds were serially diluted to generate a range of eight concentrations (128 μg/mL to 1 μg/mL) in a final well volume concentration of 2% DMSO. Each plate contained eight un-inoculated positive controls (media+20% DMSO), eight untreated negative controls (Media+20% DMSO+organism), and one column containing a concentration range of a ketoconazole as a control antibiotic. The assay plate was incubated at 37° C. for 5 days after which growth within the wells were visualised and photographed with a UVP Biospectrum 500 imaging system. Alamar blue was then added to each well at 10% of the culture volume (11 μL in 100 μL). Fluorescence was monitored using a BioTek Synergy HT plate reader at 530/25 excitation, 590/35 emission and 35 sensitivity at both time zero and 4 hrs after Alamar blue was added. After subtracting the time zero emission 590 nm measurement from the final reading the inferred percentage of microorganism survival relative to vehicle control wells were calculated and the IC50 was determined.

The subject of another series is M. furfur. In words: Anti-fungal effect against M. furfur in a shampoo type formulation. Type of series: cell-based, Malassezia furfur. The procedure:
Experimentation was carried out to assess the anti-fungal effect of the fumagillin derivative alone and in combination with pseurotin A against M. furfur in a shampoo type formulation.
Compositions of the fumagillin derivative with and without pseurotin A were created and suspended into the baby shampoo. The shampoo mixture was then diluted out into the assay in a similar manner to Head & Shoulders, so that various dilution points in the assay represented multiple sub-inhibitory concentrations of the fumagillin derivative and pseurotin A.

Series [2] concerns Human foreskin BJ fibroblast cells (ATCC CRL-2522). In words: Fibroblast cytotoxicity assay (Alamar blue). Type of series: cell-based. The procedure:
Human foreskin BJ fibroblast cells (ATCC CRL-2522) were grown and maintained in 15 mL of Eagle's minimal essential medium (Sigma M5650) supplemented with 10% fetal bovine serum (VWR # CA95043-976) and […] penicillin and 0.1 mg/mL streptomycin (VWR # CA12001-692) in T75 cm^2 cell culture flasks (VWR # CABD353136) at 37° C. in a humidified atmosphere of 5% CO2. Culture medium was refreshed every two to three days and cells were not allowed to exceed 80% confluency.
At 80% confluency, the cells were counted, diluted and plated into 96 well treated cell culture plates (VWR #29442-054) at a cell density of 10000 cells per well in 90 μL of respective growth medium. All media used for the assay were the same without the addition of antibiotics. The plates were incubated at 37° C. in a humidified atmosphere of 5% CO2 to allow cells to adhere to the plates for 24 hrs before treatment. DMSO was used as the vehicle at a final concentration of 1% in the wells. […]
(§1) All samples were tested in triplicate. […] Fluorescence was monitored using a BioTek Synergy HT plate reader at 530/25 excitation, 590/35 emission and 35 sensitivity at both time zero and 4 hrs after Alamar blue was added. After subtracting the time zero emission 590 nm measurement from the final reading the inferred percentage of microorganism survival relative to vehicle control wells were calculated and the IC50 was determined.
(Alamar Blue is a resazurin reagent that responds to reducing activity.)

Series [3] deals with Adult human epidermal keratinocytes (Heka). In words: Keratinocyte cytotoxicity assay (Alamar blue). Type of series: cell-based. On the procedure:
Adult human epidermal keratinocytes (Heka) isolated from skin (Invitrogen # C-005-5C) were grown and maintained in 15 mL of EPilife medium (Invitrogen # M-EPI-500) supplemented with HKGS growth supplements (Invitrogen # S-001-5) (0.2% v/v bovine pituitary extract (BPE), 5 μg/mL bovine insulin, 0.18 μg/mL hydrocortisone, 5 μg/mL bovine transferrin, 0.2 ng/mL human epidermal growth factor) and 50 μg/mL gentamicin (Sigma # G1397-10ML) in T75 cm^2 cell culture flasks (VWR # CABD353136) and incubated at 37° C. in a humidified atmosphere of 5% CO2. Growth medium was refreshed every 2 days until the cells reached 50% confluency and then the medium was refreshed every 24 hrs until 80% confluency was obtained.
At 80% confluency, the cells were counted, diluted and plated into 96 well treated cell culture plates (VWR #29442-054) at a cell density of 10000 cells per well in 90 μL of respective growth medium. […]
as §1

Results on two compounds are retold here after US10821064B2, “Anti-dandruff agents” (Croda International PLC, priority 2015, dated 2020).

Where only a bound is given, the exact number is not on record here.

In the case of `CO[C@@H]1[C@H](OC(=O)/C=C/[C@H]2O[C@@H]2C)CC[C@]2(CO2)[C@H]1[C@@]1(C)O[C@@H]1CC=C(C)C` [Fumagillin derivative], the IC50 in series [1] (Malassezia furfur, ATCC38593, 120 h, 37° C., 5 days, Alamar blue) is approximately 0.7 µg/mL; in series [2] (Homo sapiens, Fibroblast, 24 hrs treatment, cytotoxicity) it was more than 64 µg/mL; in series [3] (Homo sapiens, HEKa, 24 hrs treatment, cytotoxicity) it was more than 64 µg/mL. For the same compound, the MIC was approximately 2 µg/mL in series [1] (Malassezia furfur, ATCC38593, 120 h, 37° C., 5 days, pure compound 128 to 1 μg/mL) and 1.25 µg/mL in the series on M. furfur (Malassezia furfur, fumagillin derivative alone, suspended in baby shampoo). Further, the “Fibroblast MIC” value in series [2] (human, 24 h) is more than 64 µg/mL. Further, the “Keratinocyte MIC” value in series [3] (human, 24 h) was more than 64 µg/mL.

On to `CC/C=C\[C@H](O)[C@H](O)C1=C(C)C(=O)[C@]2(O1)C(=O)N[C@@](OC)(C(=O)c1ccccc1)[C@@H]2O` [Pseurotin A, pseurotin A, reference compound], for which the “antifungal effect against Malassezia yeasts” value in series [1] (screening of extracts) is reported as “some activity against M. furfur”. In the series on M. furfur (shampoo type formulation, alone or as mixture at sub-MIC concentrations), the “antifungal effect against M. furfur” value is reported as “antifunimgal effect against M. furfur was observed”.

The term IC50 denotes the point on the concentration scale where inhibition reaches its midpoint. For orientation: MIC means the smallest concentration in the dilution series that meets the test's criterion for growth inhibition.
